Test results: US20100249145A1, “Inhibitors of VEGF Receptor and HGF Receptor Signaling” (Methylgene, Inc., priority 2005, published 2010)
Like-named read-outs stand apart in the source and are kept apart here.

Columns and labels:
VEGF receptor KDR = target: T1, VEGF receptor KDR (Homo sapiens, UniProt P35968); assay: In vitro receptor tyrosine kinase assay (DELFIA), VEGF receptor KDR; assay type: biochemical; details: ATP 0.6 uM, enzyme 5 nM
T1 construct: made in house; host or cells: Sf9 cells (Spodoptera frugiperda), recombinant baculovirus
T1 sequence (P35968 806-1356): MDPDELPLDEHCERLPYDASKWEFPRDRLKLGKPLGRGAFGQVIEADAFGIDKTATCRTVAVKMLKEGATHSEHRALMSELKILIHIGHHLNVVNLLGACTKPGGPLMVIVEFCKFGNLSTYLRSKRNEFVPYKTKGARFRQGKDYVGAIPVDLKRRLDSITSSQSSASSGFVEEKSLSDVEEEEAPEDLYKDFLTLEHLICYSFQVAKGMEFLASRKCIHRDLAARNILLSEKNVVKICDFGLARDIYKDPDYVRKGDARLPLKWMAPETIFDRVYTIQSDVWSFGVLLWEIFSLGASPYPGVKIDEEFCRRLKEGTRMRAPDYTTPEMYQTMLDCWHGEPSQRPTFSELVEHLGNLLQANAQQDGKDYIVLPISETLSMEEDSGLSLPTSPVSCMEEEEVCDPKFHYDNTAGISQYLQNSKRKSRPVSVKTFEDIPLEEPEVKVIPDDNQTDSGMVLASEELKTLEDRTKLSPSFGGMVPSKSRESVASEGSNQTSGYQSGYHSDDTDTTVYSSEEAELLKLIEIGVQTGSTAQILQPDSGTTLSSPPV
Source text: In Vitro Receptor Tyrosine Kinase Assays (c-Met/HGF receptor and VEGF Receptor KDR)
In the case of VEGF receptor KDR a 1.6-kb cDNA corresponding to the catalytic domain of VEGFR2 or KDR (Genbank accession number AF035121 amino acid 806 to 1356) was cloned into the Pst I site of the pDEST20 Gateway vector (Invitrogen) for the production of a GST-tagged version of that enzyme.
The GST-VEGFR2806-1356 protein was expressed in Sf9 cells (Spodoptera frugiperda) upon infection with recombinant baculovirus construct.
The supernatant was loaded onto a GST-agarose column (Sigma) equilibrated with PBS pH 7.3. Following a four column volume (CV) wash with PBS pH 7.3+1% Triton X-100 and 4 CV wash with buffer B (50 mM Tris pH 8.0, 20% glycerol and 100 mM NaCl), bound proteins were step eluted with 5 CV of buffer B supplemented with 5 mM DTT and 15 mM glutathion. […] Final GST-VEGFR2806-1356 protein preparations concentrations were about 0.7 mg/ml with purity approximating 70%.

[1] = target: T2, recombinant human c-Met/HGF receptor (Homo sapiens, UniProt P08581); assay: In vitro receptor tyrosine kinase assay (DELFIA), c-Met/HGF receptor; assay type: biochemical; details: ATP 10 uM, enzyme 25 nM
T2 construct: His tag (histidine tag from pBlueBacHis2A); made in house; host or cells: Hi-5 cells (Trichoplusia ni), recombinant baculovirus
T2 sequence (P08581 1078-1337): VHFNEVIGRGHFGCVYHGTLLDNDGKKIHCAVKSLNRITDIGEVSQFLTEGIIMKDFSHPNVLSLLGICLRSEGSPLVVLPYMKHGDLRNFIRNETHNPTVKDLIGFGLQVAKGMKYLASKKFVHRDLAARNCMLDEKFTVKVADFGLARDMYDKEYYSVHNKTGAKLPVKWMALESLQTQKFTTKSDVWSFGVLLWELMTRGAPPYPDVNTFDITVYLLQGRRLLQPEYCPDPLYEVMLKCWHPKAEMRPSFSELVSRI

A549 = A549 wound healing inhibition (HGF dependent migration); assay type: cell-based; details: Homo sapiens, Table 31, read-out: A549 wound healing inbib IC50
Source text: (§1) HGF has well known activity in terms of inducing scattering and migration (wound healing) (Wells et al., Cell Motil Cytoskeleton. 2005 November 62(3):180-94; Miura et al., Urology 2001 December 58(6):1064-9; Nishimura et al., Int J. Urol. 1998 May 5(3):276-81; Wang et al., Mol Cancer Ther. 2003 November; 2(11):1085-92; and Christensen et al., Cancer Res. 2003 Nov. 1; 63(21):7345-55).

DU145 = DU145 scattering inhibition (HGF dependent scattering); assay type: cell-based; details: Homo sapiens, DU-145, Table 31, read-out: DU145 scattering inhib IC50
Source text: as §1

[2] = Table 30, read-out: VEGF(enz.) (IC50)
[3] = Table 30, read-out: C-Met (enz.) (IC50)

| SMILES | IC50 (VEGF receptor KDR; [2]) [nM] | IC50 ([1]; Table 31, read-out: CMet ic50) [nM] | IC50 (VEGF receptor KDR; Table 31, read-out: VEGFR IC50) [nM] | IC50 (A549) [nM] | IC50 (DU145) [nM] | IC50 [1, 3] [nM] |
| --- | --- | --- | --- | --- | --- | --- |
| CC(O)c1cc2nccc(Oc3ccc(NC(=S)NC(=O)Cc4ccccc4)cc3F)c2s1 (centres unmarked) [Example 20, 1-(4-(2-(1-Hydroxyethyl)thieno[3,2-b]pyridin-7-yloxy)-3-fluorophenyl)-3-(2-phenylacetyl)thiourea] | > 500 | – | – | – | – | – |
| C#Cc1cc(F)ccc1CC(=O)NC(=S)Nc1ccc(Oc2ccnc3cc(C4=CCN(C)CC4)sc23)c(F)c1 | – | < 50 | 50 to 250 | < 1000 | < 1000 | – |
| C#Cc1cc(F)ccc1CC(=O)NC(=S)Nc1ccc(Oc2ccnc3cc(-c4cn(C)cn4)sc23)c(F)c1 | – | < 50 | < 50 | < 1000 | < 1000 | – |
| CCn1cnc(-c2cc3nccc(Oc4ccc(NC(=S)NC(=O)Cc5ccc(F)cc5F)cc4F)c3s2)c1 | – | < 50 | < 50 | 1000 to 5000 | < 1000 | – |
| CNC(=O)c1cc2nccc(Oc3ccc(NC(=S)NC(=O)Cc4ccccc4)cc3F)c2s1 [Example 5, 1-(4-(2-(methylcarbamoyl)thieno[3,2-b]pyridin-7-yloxy)-3-fluorophenyl)-3-(2-phenylacetyl)thiourea] | 50 to 250 | – | – | – | – | – |
| CCn1cnc(-c2cc3nccc(Oc4ccc(NC(=S)NC(=O)Cc5ccc(F)cc5)cc4F)c3s2)c1 | – | < 50 | < 50 | < 1000 | < 1000 | – |
| CN(CCO)Cc1ccc(-c2cc3nccc(Oc4ccc(NC(=S)NC(=O)Cc5ccccc5)cc4F)c3s2)cc1 | – | < 50 | < 50 | < 1000 | < 1000 | – |
| O=C(Cc1ccccc1)NC(=S)Nc1ccc(Oc2ccnc3cc(-c4cn(CCN5CCCC5)cn4)sc23)c(F)c1 | – | < 50 | < 50 | 5000 to 10000 | < 1000 | – |
| O=C(Cc1ccccc1)NC(=S)Nc1ccc(Oc2ccnc3cc(-c4cccs4)sc23)c(F)c1 [Example 16] | < 50 | – | – | – | – | – |
| COCCN(CCOC)Cc1cccc(-c2cc3nccc(Oc4ccc(NC(=S)NC(=O)Cc5ccc(F)cc5)cc4F)c3s2)c1 | – | < 50 | – | < 1000 | < 1000 | – |
| O=C(Cc1ccc(F)cc1)NC(=S)Nc1ccc(Oc2ccnc3cc(-c4cccc[n+]4[O-])sc23)c(F)c1 | – | < 50 | < 50 | < 1000 | < 1000 | – |
| COCCNCc1cccc(-c2cc3nccc(Oc4ccc(NC(=S)NC(=O)Cc5ccc(F)cc5)cc4F)c3s2)n1 | – | < 50 | 250 to 500 | < 1000 | < 1000 | – |
| CNC(=O)c1cc2ncnc(Oc3ccc(NC(=S)NC(=O)Cc4ccccc4)cc3F)c2s1 [Example 25, 1-(4-(6-(Methylcarbamoyl)thieno[3,2-d]pyrimidin-4-yloxy)-3-fluorophenyl)-3-(2-phenylacetyl)thiourea] | 50 to 250 | – | – | – | – | 50 to 250 |
| C#Cc1ccc(CC(=O)NC(=S)Nc2ccc(Oc3ccnc4cc(-c5nccn5C)sc34)c(F)c2)cc1F | – | 50 to 250 | < 50 | < 1000 | 1000 to 5000 | – |
| CNC(=O)N1CCN(Cc2ccc(-c3cc4nccc(Oc5ccc(NC(=S)NC(=O)Cc6ccc(F)cc6)cc5F)c4s3)cc2)CC1 | – | < 50 | < 50 | < 1000 | < 1000 | – |
| CCn1ccnc1-c1cc2nccc(Oc3ccc(NC(=S)NC(=O)Cc4ccc(F)cc4F)cc3F)c2s1 | – | < 50 | 50 to 250 | < 1000 | < 1000 | – |
| CN(C)C(=O)c1ccc(-c2cc3nccc(Oc4ccc(NC(=S)NC(=O)Cc5ccc(F)cc5)cc4F)c3s2)cc1 | – | < 50 | < 50 | < 1000 | < 1000 | – |

| SMILES | IC50 (VEGF receptor KDR; [2]) [nM] | IC50 ([1]; Table 31, read-out: CMet ic50) [nM] | IC50 (VEGF receptor KDR; Table 31, read-out: VEGFR IC50) [nM] | IC50 (A549) [nM] | IC50 (DU145) [nM] | IC50 [1, 3] [nM] |
| --- | --- | --- | --- | --- | --- | --- |
| Cn1cnc(-c2cc3nccc(Oc4ccc(NC(=S)NC(=O)Cc5ccc(F)cc5F)cc4F)c3s2)c1 [drawing 434] | – | < 50 | < 50 | < 1000 | < 1000 | – |
| COCCNCc1ccc(-c2cc3nccc(Oc4ccc(NC(=S)NC(=O)Cc5ccc(F)cc5)cc4F)c3s2)c(F)c1 | – | – | – | < 1000 | < 1000 | – |
| CCn1ccc2ncnc(Oc3ccc(NC(=S)NC(=O)Cc4ccccc4)cc3F)c21 [Example 29, 1-(4-(5-Ethyl-5H-pyrrolo[3,2-d]pyrimidin-4-yloxy)-3-fluorophenyl)-3-(2-phenylacetyl)thiourea] | > 500 | – | – | – | – | 250 to 500 |
| NC(=O)c1cc2ncnc(Oc3ccc(NC(=S)NC(=O)Cc4ccccc4)cc3F)c2s1 [Example 27, 1-(4-(6-Carbamoylthieno[3,2-d]pyrimidin-4-yloxy)-3-fluorophenyl)-3-(2-phenylacetyl)thiourea] | 50 to 250 | – | – | – | – | 50 to 250 |
| CN(CCO)Cc1ccc(-c2cc3nccc(Oc4ccc(NC(=S)NC(=O)Cc5ccc(F)cc5)cc4F)c3s2)nc1 | – | < 50 | < 50 | – | < 1000 | – |
| O=C(Cc1ccccc1)NC(=S)Nc1ccc(Oc2ccnc3cc(-c4cccnc4)sc23)c(F)c1 [Example 18] | 50 to 250 | – | – | – | – | – |
| O=C(Cc1ccccc1)NC(=S)Nc1ccc(Oc2ccnc3ccsc23)c(F)c1 [Example 133, N-(3-Fluoro-4-(thieno[3,2-b]pyridin-7-yloxy)phenylcarbamothioyl)-2-phenylacetamide] | 50 to 250 | – | – | – | – | – |
| O=C(Cc1ccccc1)NC(=S)Nc1ccc(Oc2ccnc3ccsc23)cc1 [Example 188, 2-Phenyl-N-(4-(thieno[3,2-b]pyridin-7-yloxy)phenylcarbamothioyl)acetamide] | > 500 | – | – | – | – | – |
| CCn1cncc1-c1cc2nccc(Oc3ccc(NC(=S)NC(=O)Cc4ccccc4OC)cc3F)c2s1 | – | < 50 | – | 1000 to 5000 | < 1000 | – |
| O=C(Cc1ccccc1)NC(=S)Nc1ccc(Oc2ccnc3cc(-c4ncccn4)sc23)c(F)c1 [Example 14, N-(3-Fluoro-4-(2-(pyrimidin-2-yl)thieno[3,2-b]pyridin-7-yloxy)phenylcarbamothioyl)-2-phenylacetamide] | 50 to 250 | – | – | – | – | – |
| CON(C)C(=O)c1cc2ncnc(Oc3ccc(NC(=S)NC(=O)Cc4ccccc4)cc3F)c2s1 [Example 26, 1-(4-(6-(N-Methoxy-N-methylcarbamoyl)thieno [3,2-d]pyrimidin-4-yloxy)-3-fluorophenyl)-3-(2-phenylacetyl)thiourea] | 50 to 250 | – | – | – | – | 50 to 250 |
| COCCNCc1ccc(-c2cc3nccc(Oc4ccc(NC(=S)NC(=O)Cc5ccc(F)cc5)cc4F)c3s2)nc1 | – | – | < 50 | < 1000 | < 1000 | – |
| CCCNCc1ccc(-c2cc3nccc(Oc4ccc(NC(=S)NC(=O)Cc5ccc(F)cc5)cc4F)c3s2)cc1 | – | – | – | < 1000 | < 1000 | – |
| NC(=O)c1cc2nccc(Oc3ccc(NC(=S)NC(=O)Cc4ccccc4)cc3F)c2s1 [Example 9, 1-(4-(2-carbamoylthieno[3,2-b]pyridin-7-yloxy)-3-fluorophenyl)-3-(2-phenylacetyl)thiourea] | 50 to 250 | – | – | – | – | – |
| Cc1ccccc1CC(=O)NC(=S)Nc1ccc(Oc2ccnc3cc(-c4cn(C)cn4)sc23)c(F)c1 | – | < 50 | < 50 | < 1000 | – | – |
| Cn1ccc2ncnc(Oc3ccc(NC(=S)NC(=O)Cc4ccccc4)cc3F)c21 [Example 28, 1-(4-(5-Methyl-5H-pyrrolo[3,2-d]pyrimidin-4-yloxy)-3-fluorophenyl)-3-(2-phenylacetyl)thiourea] | > 500 | – | – | – | – | 50 to 250 |
